Patent publication US7144880B2, “Compositions relating to novel compounds and targets thereof” (Regents of the University of Michigan, priority 2003, dated 2006)

Tests used:
human OSCP = molecular target: T1, human OSCP (Homo sapiens, UniProt P48047); assay: Quenching of intrinsic OSCP fluorescence on titration (binding isotherm); conditions: human OSCP overexpressed in E. coli, fluorescence quenching
T1 construct: made in house; host or cells: E. coli
Text: Oligomycin is a macrolide natural product that binds to the mitochondrial F1F0-ATPase, induces a state 3 to 4 transition, and as a result, generates ROS (e.g., O2^−). In preferred embodiments, the present invention binds the OSCP component of the mitochondrial F1F0-ATPase. In certain embodiments, screening assays of the present invention permit detection of binding partners of the OSCP. OSCP is an intrinsically fluorescent protein. In certain embodiments, titrating a solution of test compounds of the present invention into an E. Coli sample overexpressed with OSCP results in quenching of the intrinsic OSCP fluorescence. In other embodiments, fluorescent or radioactive test compounds can be used in direct binding assays. In other embodiments, competition binding experiments can be conducted. In this type of assay, test compounds are assessed for their ability to compete with Bz-423 for binding to the OSCP. In some embodiments, the compounds of the present invention cause a reduced increase in cellular ROS levels and reduced apoptosis in cells through regulation of the OSCP gene (e.g., altering expression of the OSCP gene). In further embodiments, the present invention functions by altering the molecular motions of the ATPase motor.
To determine if Bz-423 indeed binds to the OSCP and the affinity of the interaction, human OSCP was overexpressed in E. coli. […]

[1] = molecular target: T2, mitochondrial F1F0-ATPase (Bos taurus, UniProt P13621); assay: ATPase activity in sub-mitochondrial particles (SMPs); assay type: biochemical, bovine; conditions: bovine SMPs; read-out: ED50, inhibition of mitochondrial ATPase activity
T2 construct: from tissue
Text: Oligomycin, a macrolide natural product that binds to the mitochondrial F1F0-ATPase, induces a state 3 to 4 transition and generates O2^− like Bz-423. Based on these similarities, it is possible that the F1F0-ATPase is also the molecular target for Bz-423. To test this hypothesis, the effect of Bz-423 on ATPase activity in sub-mitochondrial particles (SMPs) was examined.
>40 derivatives of Bz-423 were developed to determine the elements on this novel agent required for biological activity. […] The potency of these analogues in cell based assays correlated with the ED50 values in ATPase inhibition experiments using SMPs.

Ramos cells [2] = assay: Antiproliferation, 72 h, media with 10% FBS; assay type: cell-based, human; conditions: read-out: ED50 (μM) for antiproliferation
Experimental: (§1) Like most 1,4-benzodiazepines, Bz-423 binds strongly to bovine serum albumin (BSA), which reduces the effective concentration of drug free in solution. For example, in tissue culture media containing 10% (v/v) fetal bovine serum (FBS), ca. 99% of the drug is bound to BSA. Therefore, cell culture cytotoxicity assays are conducted in media with 2% FBS to reduce binding to BSA and increase the free [Bz-423]. Under these conditions, the dose response-curve is quite sharp such that there is a limited concentration range at which Bz-423 is only partly effective. Since some benzodiazepines are known to have anti-proliferative properties, the effect of Bz-423 at concentrations <ED50 were carefully analyzed and observed that in addition to inducing apoptosis, Bz-423 prevented cell growth after 3 d in culture. In these low serum conditions, the cytotoxic and anti-proliferative effects overlapped making it difficult to study each effect independently. […] While higher amounts of drug may also block proliferation, it caused apoptosis well before the effects on proliferation could be observed.
(§2) To confirm the decrease in cell number relative to control cells after 3 d of treatment is due to decreased proliferation and not cell death balanced by proliferation, in addition to cell counting, cell divisions were studied. PKH-67 is a fluorescent probe that binds irreversibly to cell membranes and upon cell division is partitioned equally between the daughter cells, making it possible to quantify cell division by flow cytometry. Ramos cells stained with PKH67 and treated with Bz-423 had fewer cell divisions at sub-cytotoxic concentrations which confirmed that the decrease in cell number was due to anti-proliferative affects and not cell death. To determine if Bz-423 induced anti-proliferation was specific to Ramos cells, cell counting and cell cycle experiments were done in other B cell lines and cell lines derived from solid tumors.

[3] = system: Ramos clones transfected to overexpress Bcl-2; assay: Antiproliferation, 72 h, media with 10% FBS; assay type: cell-based, human; conditions: Bcl-2 overexpressing Ramos, read-out: ED50 (μM) for antiproliferation
Experimental: as §1, §2

[4] = system: Ramos clones transfected to overexpress Bcl-xL; assay: Antiproliferation, 72 h, media with 10% FBS; assay type: cell-based, human; conditions: Bcl-XL overexpressing Ramos, read-out: ED50 (μM) for antiproliferation
Experimental: as §1, §2

[5] = molecular target: T3, bovine serum albumin (BSA) (Bos taurus, UniProt P02769); assay: Binding to serum albumin in tissue culture media; assay type: in vitro ADME; conditions: tissue culture media containing 10% (v/v) FBS
T3 construct: from tissue; host or cells: fetal bovine serum (10% v/v) in tissue culture media
T3 sequence (P02769 25-607): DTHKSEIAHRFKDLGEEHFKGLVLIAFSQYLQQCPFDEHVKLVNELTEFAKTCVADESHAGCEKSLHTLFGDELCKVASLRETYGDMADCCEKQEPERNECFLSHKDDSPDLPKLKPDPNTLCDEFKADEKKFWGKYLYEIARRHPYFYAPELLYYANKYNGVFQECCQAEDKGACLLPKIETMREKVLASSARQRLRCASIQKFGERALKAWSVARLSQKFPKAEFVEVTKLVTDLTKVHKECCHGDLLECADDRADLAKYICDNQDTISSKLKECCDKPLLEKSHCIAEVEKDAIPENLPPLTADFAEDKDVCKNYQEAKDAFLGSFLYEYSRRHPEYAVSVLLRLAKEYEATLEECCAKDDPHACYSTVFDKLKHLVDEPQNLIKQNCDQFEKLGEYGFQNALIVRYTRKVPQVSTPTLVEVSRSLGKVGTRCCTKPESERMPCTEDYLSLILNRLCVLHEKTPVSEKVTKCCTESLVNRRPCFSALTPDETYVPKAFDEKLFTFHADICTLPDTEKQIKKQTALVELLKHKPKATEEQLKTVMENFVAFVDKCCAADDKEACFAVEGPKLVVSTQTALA
Experimental: as §1

Ramos cells [6] = assay: Gene expression profiling (Affymetrix U133A) of treated cells; assay type: cell-based, human; conditions: versus control cells
Experimental: In vitro testing with Ramos cells to determine the changes in gene expression (at the level of mRNA) induced by Bz-423 was performed by culturing cells at a density of 500,000 cells per ml. Solvent control (DMSO, final concentration 0.1% V/V]), Bz-423, or Bz-OMe (10 μM) was added to cells. After 4 h, cells were harvested and RNA prepared using Trizol Reagent (#15596-018, Life Technologies, Rockville, Md.) and the RNeasy Maxi Kit (# 75162, Qiagen, Valencia, Calif.) according to manufacturers protocols. Single stranded cDNA was synthesized by reverse transcription using poly (A) RNA present in the starting total RNA sample. Single stranded cDNA was converted into double stranded cDNA and then in vitro transcription carried out in the presence of biotinylated UTP and CTP to produce biotin-labeled cRNA. cRNA was fragmented in the presence of Mg2+, and hybridized to the human genome U133A Genechip array (Affymetrix). Hybridization results were quantified using a GeneArray scanner and analysis carried out according to the instructions provided by Affymetrix. […]
The data were analyzed to detect genes changes Bz treatment according to the criteria that the log-transformed mean signal changed at least four-fold in treated compared to vehicle control samples and that the coefficient of variance for control values (n=4) was less than 10%. […]

T1 sequence (P48047 24-213): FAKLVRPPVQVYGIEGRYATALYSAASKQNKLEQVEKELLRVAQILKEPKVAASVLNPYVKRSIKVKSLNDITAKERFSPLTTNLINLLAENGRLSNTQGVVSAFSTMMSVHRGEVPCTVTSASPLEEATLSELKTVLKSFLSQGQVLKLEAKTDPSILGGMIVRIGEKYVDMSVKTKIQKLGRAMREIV

CN1C(=O)C(Cc2ccc3ccccc3c2)N=C(c2ccc(O)cc2)c2cc(Cl)ccc21 (stereo not shown) [Bz-423]
Kd (human OSCP): 0.2 ± 0.04 µM
EC50 [1]: ~5 µM
EC50 (Ramos cells [2]): 10.7 µM
EC50 [3]: 11.9 µM
EC50 [4]: 13.7 µM
Drug bound to BSA [5]: ca. 99%
Induction of MIF expression (Ramos cells [6]): approximately 10 fold
